The values that follow come from ChEMBL document CHEMBL1159299, “Multidrug-resistance modulators from Stephania japonica” (1997).

SMILES strings stand for the structures. Converted amounts (≈) assume the structure as drawn.

Assay [1] concerns MCF/ADR. Put plainly: Reversal of P-gp-mediated multidrug resistance in human MCF/ADR cells assessed as ratio of doxorubicin ED50 without drug to doxorubicin ED50 with drug at 1.0 ug/ml after 6 days by BCA assay. The assay is classed as cell-based.
A short description of assay [2]: Cytotoxicity against human MCF7/ADR cells assessed as ratio of drug concentration to drug ED100 at 0.15 ug/ml after 6 days by BCA assay. The class given is functional, NCI/ADR-RES.
For assay [3], the system named is MCF/ADR. Put plainly: Reversal of P-gp-mediated multidrug resistance in human MCF/ADR cells assessed as ratio of doxorubicin ED50 without drug to doxorubicin ED50 with drug at 0.3 ug/ml after 6 days by BCA assay. The class given is cell-based.
Assay [4] relates to MCF/ADR. Put plainly: Reversal of P-gp-mediated multidrug resistance in human MCF/ADR cells assessed as ratio of doxorubicin ED50 without drug to doxorubicin ED50 with drug at 0.6 ug/ml after 6 days by BCA assay. The class given is cell-based.
A short description of assay [5]: Cytotoxicity against human MCF7/ADR cells assessed as ratio of drug concentration to drug ED100 at 0.8 ug/ml after 6 days by BCA assay. The assay is classed as functional, NCI/ADR-RES.
Assay [6] is described as follows: Cytotoxicity against human MCF7/ADR cells assessed as ratio of drug concentration to drug ED100 at 1.0 ug/ml after 6 days by BCA assay. The assay is classed as functional, NCI/ADR-RES.
For assay [7], the system named is MCF/ADR. Put plainly: Reversal of P-gp-mediated multidrug resistance in human MCF/ADR cells assessed as ratio of doxorubicin ED50 without drug to doxorubicin ED50 with drug at 1.15 ug/ml after 6 days by BCA assay. The class given is cell-based.
A short description of assay [8]: Cytotoxicity against human MCF7/ADR cells. The assay is classed as functional. To be noted: NCI/ADR-RES, read-out: ED50 (the source's name).
Assay [9] in a line: Cytotoxicity against human MCF7/ADR cells assessed as ratio of drug concentration to drug ED100 at 0.3 ug/ml after 6 days by BCA assay. The class given is functional, NCI/ADR-RES.
For assay [10], the system named is MCF/ADR. Put plainly: Reversal of P-gp-mediated multidrug resistance in human MCF/ADR cells assessed as ratio of doxorubicin ED50 without drug to doxorubicin ED50 with drug at 0.8 ug/ml after 6 days by BCA assay. The class given is cell-based.
A short description of assay [11]: Cytotoxicity against human MCF7/ADR cells assessed as ratio of drug concentration to drug ED100 at 0.6 ug/ml after 6 days by BCA assay. The assay is classed as functional, NCI/ADR-RES.
Assay [12] in a line: Cytotoxicity against human MCF7/ADR cells assessed as ratio of drug concentration to drug ED100 at 8 ug/ml after 6 days by BCA assay. The assay is classed as functional, NCI/ADR-RES.
Assay [13] is described as follows: Cytotoxicity against human MCF7/ADR cells assessed as ratio of drug concentration to drug ED100 at 3 ug/ml after 6 days by BCA assay. The assay is classed as functional, NCI/ADR-RES.
A short description of assay [14]: Cytotoxicity against human MCF7/ADR cells assessed as ratio of drug concentration to drug ED100 at 1.5 ug/ml after 6 days by BCA assay. The assay is classed as functional, NCI/ADR-RES.
Assay [15] can be described thus: Cytotoxicity against human MCF7/ADR cells assessed as ratio of drug concentration to drug ED100 at 10 ug/ml after 6 days by BCA assay. The assay is classed as functional, NCI/ADR-RES.
A short description of assay [16]: Cytotoxicity against human MCF7/ADR cells assessed as ratio of drug concentration to drug ED100 at 6 ug/ml after 6 days by BCA assay. The assay is classed as functional, NCI/ADR-RES.

Take `COc1ccc2cc1Oc1ccc(cc1)C[C@H]1c3c(cc(OC)c4c3Oc3cc5c(cc3O4)CCN(C)[C@H]5C2)CCN1C` [ISOTRILOBINE]: the Ratio ED50 in the assay with MCF/ADR [1] was 70; with MCF/ADR [3], 10; with MCF/ADR [4] it was 32; in the assay with MCF/ADR [7] it was 5; in the assay on MCF/ADR [10], 57. In addition, the Activity in [2] is recorded as 0.03; in [5], 0.16; in assay [6], 0.2; in assay [9], 0.06; in assay [11], 0.12. Further, the EC50 in [8] is 2 µg/mL (≈ 3.47 µM).
Regarding `COc1ccc2cc1Oc1ccc(cc1)C[C@@H]1NCCc3cc(OC)c4c(c31)Oc1cc3c(cc1O4)CCN(C)[C@H]3C2` [TRILOBINE], the Activity in the assay on MCF/ADR [1] was determined as 2; in the assay with MCF/ADR [3], 1; in the assay with MCF/ADR [4], 1.5; in assay [5] it was 0.13; in [6], 0.17; in [9] it was 0.05. Besides, the Activity with MCF/ADR [10] worked out at 2; in [11], 0.1. Besides, in [8], the EC50 came out at 1 µg/mL (≈ 1.78 µM).
For the compound `COc1ccc(CCN(C)CCCC(C#N)(c2ccc(OC)c(OC)c2)C(C)C)cc1OC` (stereo not given) [VERAPAMIL], the Activity in assay [12] came out at 0.15; in assay [13] it was 0.06; in [14] it was 0.03; in [15], 0.19; in assay [16], 0.12.
